Test results published in patent publication US10184115B2, “Mutated cellobiose dehydrogenase with increased substrate specificity” (DIRECTSENS GMBH, priority 2012, dated 2019).

Target: T1, Myriococcum thermophilum cellobiose dehydrogenase (CDH, SEQ ID NO: 1) variant R622N (Thermothelomyces myriococcoides, UniProt A9XK88, R622N)
T1 sequence (A9XK88 22-828 R622N): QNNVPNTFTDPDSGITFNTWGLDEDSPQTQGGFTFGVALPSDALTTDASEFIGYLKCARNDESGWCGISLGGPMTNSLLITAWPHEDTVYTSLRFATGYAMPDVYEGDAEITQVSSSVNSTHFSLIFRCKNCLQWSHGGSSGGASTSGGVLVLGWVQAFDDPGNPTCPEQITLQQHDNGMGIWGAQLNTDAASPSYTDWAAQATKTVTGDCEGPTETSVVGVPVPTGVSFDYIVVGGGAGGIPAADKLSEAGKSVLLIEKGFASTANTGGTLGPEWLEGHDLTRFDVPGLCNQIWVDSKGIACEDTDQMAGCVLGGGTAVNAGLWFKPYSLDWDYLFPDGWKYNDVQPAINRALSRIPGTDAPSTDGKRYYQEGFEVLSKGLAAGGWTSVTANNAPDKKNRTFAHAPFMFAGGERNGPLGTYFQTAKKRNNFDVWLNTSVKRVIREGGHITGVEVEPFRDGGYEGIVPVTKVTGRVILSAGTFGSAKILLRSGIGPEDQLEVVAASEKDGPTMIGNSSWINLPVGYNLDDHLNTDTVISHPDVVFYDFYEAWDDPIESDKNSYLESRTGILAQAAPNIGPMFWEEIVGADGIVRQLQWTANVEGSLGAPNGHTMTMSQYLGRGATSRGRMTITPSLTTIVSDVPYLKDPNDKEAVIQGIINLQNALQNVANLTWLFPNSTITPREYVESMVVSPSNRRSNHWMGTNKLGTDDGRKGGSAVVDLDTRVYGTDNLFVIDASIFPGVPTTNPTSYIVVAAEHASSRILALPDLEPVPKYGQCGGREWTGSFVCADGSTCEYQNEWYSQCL
Experiment: Steady-state kinetics, DCIP assay: M. thermophilum CDH R622N
Format: biochemical
Conditions: apparent, pH 4.5, 30° C.
Protocol: Enzyme activity was assayed at 30° C. using either the DCIP (Karapetyan et al., 2005 Journal of Biotechnology 121: 34-48) or cytochrome c (Canevascini et al., 1991, European Journal of Biochemistry 198: 43-52) as electron acceptor. […] Stock solutions of carbohydrates used for kinetic measurements were prepared in the respective buffer and allowed to stand overnight for mutarotation, while stock solutions of electron acceptors were prepared in water and immediately used. The reaction stoichiometry is 1 for the two-electron acceptor DCIP (1 mole of DCIP reduced per mole of carbohydrate oxidized), but 2 for the one-electron acceptor cytochrome c. Kinetic constants were calculated by fitting the observed data to the Henri-Michaelis-Menten equation or to the adapted model for substrate inhibition using nonlinear least-squares regression and the program SigmaPlot (Systat Software, San Jose, Calif., USA). […]
Recombinant wild-type CDH as well as variants were produced in 1 L baffled flasks. […] Increase in activity was monitored using the DCIP and the cytochrome c enzyme assays. […]
The sample was loaded on a 20 mL PHE Sepharose FF column (HR26/20) equilibrated with 50 mM Na-acetate buffer pH 5.5 containing 20% ammonium sulfate. […] Fractions were tested for CDH activity and pooled according to the highest Reinheitszahl (RZ, calculated from the absorbance ratio 420 nm/280 nm). […]

## OC[C@H]1O[C@H](O[C@H]2[C@H](O)[C@@H](O)C(O)O[C@@H]2CO)[C@H](O)[C@@H](O)[C@@H]1O (stereo partly shown) [Maltose, maltose]
  kcat/KM: 5.2 M⁻¹ s⁻¹
